Assay results published in patent US9745310B2 (SK BIOPHARMACEUTICALS CO., LTD., priority 2015, dated 2017).

Each compound was assayed against human mGluR5 receptor (Homo sapiens (Human), UniProt P41594) (assay: Calcium influx assay based on fluorescence (mGluR5 PAM activity)). Conditions: human mGluR5 receptor-overexpressed HEK293 cell line; L-glutamate EC20; Fluo-4, FLIPR.
How it was run: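 HEK293 cells overexpressing human mGluR5, loaded 1 h with Fluo-4 at 37° C. Compounds (10 μM to 10 nM final, 0.1–0.2% DMSO) added with an EC20 concentration of L-glutamate, and Ca2+ response read by FLIPR at room temperature. Activity scaled as 0% for EC20 glutamate alone and 100% for glutamate maximum.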

Sequence of human mGluR5 receptor (P41594 21-1212): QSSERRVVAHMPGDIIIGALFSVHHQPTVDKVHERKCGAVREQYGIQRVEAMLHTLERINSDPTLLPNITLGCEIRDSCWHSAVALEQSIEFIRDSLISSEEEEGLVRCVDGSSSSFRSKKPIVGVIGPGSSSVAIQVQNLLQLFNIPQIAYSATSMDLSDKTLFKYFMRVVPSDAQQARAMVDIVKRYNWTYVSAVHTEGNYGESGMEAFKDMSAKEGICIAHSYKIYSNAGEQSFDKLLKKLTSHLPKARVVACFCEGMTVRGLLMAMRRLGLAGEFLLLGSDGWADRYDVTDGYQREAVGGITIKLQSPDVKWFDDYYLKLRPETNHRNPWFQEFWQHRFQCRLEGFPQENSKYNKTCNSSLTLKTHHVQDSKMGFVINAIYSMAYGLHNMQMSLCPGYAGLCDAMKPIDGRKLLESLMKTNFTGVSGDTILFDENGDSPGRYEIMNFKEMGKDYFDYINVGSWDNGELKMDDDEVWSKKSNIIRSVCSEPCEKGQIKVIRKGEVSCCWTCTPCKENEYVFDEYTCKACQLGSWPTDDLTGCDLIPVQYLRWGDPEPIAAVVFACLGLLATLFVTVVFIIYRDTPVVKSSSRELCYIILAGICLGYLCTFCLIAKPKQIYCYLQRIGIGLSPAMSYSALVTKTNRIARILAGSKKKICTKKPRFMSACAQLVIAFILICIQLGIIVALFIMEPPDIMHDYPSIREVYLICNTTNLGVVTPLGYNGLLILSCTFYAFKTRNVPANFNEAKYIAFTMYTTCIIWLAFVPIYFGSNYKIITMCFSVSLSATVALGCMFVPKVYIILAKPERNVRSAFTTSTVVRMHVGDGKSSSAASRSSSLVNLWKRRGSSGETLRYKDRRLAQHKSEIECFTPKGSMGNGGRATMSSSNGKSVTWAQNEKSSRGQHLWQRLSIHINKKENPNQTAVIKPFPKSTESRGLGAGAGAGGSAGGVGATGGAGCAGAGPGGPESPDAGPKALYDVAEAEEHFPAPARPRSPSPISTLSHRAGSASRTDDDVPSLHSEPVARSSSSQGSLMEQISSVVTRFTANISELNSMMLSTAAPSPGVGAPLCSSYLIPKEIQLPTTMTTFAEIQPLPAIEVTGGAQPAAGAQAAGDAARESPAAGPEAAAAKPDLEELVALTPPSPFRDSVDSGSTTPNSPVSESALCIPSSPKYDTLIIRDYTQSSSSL

Row | EC50 [nM] | SMILES
1 | 100 to 500 | Fc1cccc(OCc2cn3cc(-c4ccnc(F)c4)cnc3n2)c1 [Example 79, 2-[(3-fluorophenoxy)methyl]-6-(2-fluoro-4-pyridyl)imidazo[1,2-a]pyrimidine]
2 | 100 to 500 | Cc1cc(Cl)ccc1-c1cnc2nc(COc3ccc(F)cn3)cn2c1 [Example 127, 6-(4-chloro-2-methyl-phenyl)-2-[(5-fluoro-2-pyridyl)oxymethyl)imidazo[1,2-a]pyrimidine]
3 | 100 to 500 | Cc1ccc(-c2cnc3nc(COc4ccc(F)cc4)cn3c2)cc1N [Example 72, 5-[2-[(4-fluorophenoxy)methyl]imidazo[1,2-a]pyrimidin-6-yl]-2-methyl-aniline]
4 | 500 to 1000 | FC(F)(F)c1cc(Cl)ccc1-c1cnc2nc(COc3ccccn3)cn2n1 [Example 189, 2-[4-chloro-2-(trifluoromethyl)phenyl]-6-(2-pyridyloxymethyl)imidazo[1,2-b][1,2,4]triazine]
5 | 100 to 500 | COc1c(F)cccc1-c1cnc2nc(COc3cc(F)ccn3)cn2c1 [Example 121, 6-(3-fluoro-2-methoxy-phenyl)-2-[(4-fluoro-2-pyridyl)oxymethyl)imidazo[1,2-a]pyrimidine]
6 | 500 to 1000 | Fc1cccc(-c2cnc3nc(COc4ccccn4)cn3c2)c1F [Example 107, 6-(2,3-difluorophenyl)-2-(pyridin-2-yloxymethyl)imidazo[1,2-a]pyrimidine]
7 | 100 to 500 | Fc1ccc(-c2cnc3nc(COc4ccccc4)cn3c2)c(Cl)c1 [Example 15, 6-(2-chloro-4-fluorophenyl)-2-phenoxymethylimidazo[1,2-a]pyrimidine]
8 | 500 to 1000 | Cc1cc(F)ccc1-c1cnc2nc(COc3cccc(F)n3)cn2n1 [Example 191]
9 | 100 to 500 | COc1cc(C#N)ccc1-c1cnc2nc(COc3cccc(F)c3)cn2c1 [Example 95, 4-[2-[(3-fluorophenoxy)methyl]imidazo[1,2-a]pyrimidin-6-yl]-3-methoxy-benzonitrile]
10 | 100 to 500 | Fc1ccc(-c2cnc3nc(COc4ccnc(F)c4)cn3c2)cc1 [Example 164, 6-(4-fluorophenyl)-2-(2-fluoropyridin-4-yloxymethyl)imidazo[1,2-a]pyrimidine]
11 | 100 to 500 | Cc1ccc(-c2cnc3nc(COc4ccc(F)cc4)cn3c2)cn1 [Example 92, 2-[(4-fluorophenoxy)methyl]-6-(6-methyl-3-pyridyl)imidazo[1,2-a]pyrimidine]
12 | 100 to 500 | Fc1ccc(-c2cnc3nc(COc4ccccc4)cn3c2)cn1 [Example 31, 6-(6-fluoropyridin-3-yl)-2-phenoxymethylimidazo[1,2-a]pyrimidine]
13 | 100 to 500 | Fc1ccc(-c2cnc3nc(COc4ccccc4)cn3c2)nc1 [Example 40, 6-(5-fluoro-2-pyridyl)-2-phenoxymethylimidazo[1,2-a]pyrimidine]
14 | 100 to 500 | Cc1cc(F)ccc1-c1cnc2nc(COc3ccccn3)cn2c1 [Example 106, 6-(4-fluoro-2-methylphenyl)-2-(pyridin-2-yloxymethyl)imidazo[1,2-a]pyrimidine]
15 | 100 to 500 | Cc1cc(F)ccc1-c1cnc2nc(COc3ccc(F)cn3)cn2n1 [Example 192, 2-(4-fluoro-2-methyl-phenyl)-6-[(5-fluoro-2-pyridyl)oxymethyl]imidazo[1,2-b][1,2,4]triazine]
16 | 100 to 500 | FC(F)(F)c1cc(Cl)ccc1-c1cnc2nc(COc3ccccn3)cn2c1 [Example 145, 6-[4-chloro-2-(trifluoromethyl)phenyl]-2-(2-pyridyloxymethyl)imidazo[1,2-a]pyrimidine]
17 | 100 to 500 | Clc1ccc(-c2cnc3nc(COc4ccccc4)cn3c2)cn1 [Example 34, 6-(6-chloropyridin-3-yl)-2-phenoxymethylimidazo[1,2-a]pyrimidine]
18 | 500 to 1000 | Cc1ccc(F)cc1-c1cnc2nc(COc3ccc(F)cc3)cn2c1 [Example 61, 6-(5-fluoro-2-methyl-phenyl)-2-[(4-fluorophenoxy)methyl]imidazo[1,2-a]pyrimidine]
